Data from patent US10758534B2 (Vertex Pharmaceuticals Incorporated, priority 2014, dated 2020).

target: T1, F508del (Homo sapiens, UniProt P13569, DEL508-508); assay: Protocol 2: FRET membrane potential optical assay (VIPR), identification of correction compounds; assay type: cell-based; settings: F508del CFTR modulator activity; compounds of Table 1; read-out: EC30
T1 construct: expressed in transfected cells
In short: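 NIH3T3 mouse fibroblasts stably expressing F508del-CFTR incubated with compound 16 h at 37 °C in serum-free medium, then loaded with CC2-DMPE/DiSBAC2(3) FRET dyes. Channel activated with 10 μM forskolin plus 20 μM genistein in Cl⁻-free (gluconate) bath; depolarisation from Cl⁻ efflux read on VIPR II.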

T1 sequence (P13569 with tags, fused parts or gaps DEL508-508): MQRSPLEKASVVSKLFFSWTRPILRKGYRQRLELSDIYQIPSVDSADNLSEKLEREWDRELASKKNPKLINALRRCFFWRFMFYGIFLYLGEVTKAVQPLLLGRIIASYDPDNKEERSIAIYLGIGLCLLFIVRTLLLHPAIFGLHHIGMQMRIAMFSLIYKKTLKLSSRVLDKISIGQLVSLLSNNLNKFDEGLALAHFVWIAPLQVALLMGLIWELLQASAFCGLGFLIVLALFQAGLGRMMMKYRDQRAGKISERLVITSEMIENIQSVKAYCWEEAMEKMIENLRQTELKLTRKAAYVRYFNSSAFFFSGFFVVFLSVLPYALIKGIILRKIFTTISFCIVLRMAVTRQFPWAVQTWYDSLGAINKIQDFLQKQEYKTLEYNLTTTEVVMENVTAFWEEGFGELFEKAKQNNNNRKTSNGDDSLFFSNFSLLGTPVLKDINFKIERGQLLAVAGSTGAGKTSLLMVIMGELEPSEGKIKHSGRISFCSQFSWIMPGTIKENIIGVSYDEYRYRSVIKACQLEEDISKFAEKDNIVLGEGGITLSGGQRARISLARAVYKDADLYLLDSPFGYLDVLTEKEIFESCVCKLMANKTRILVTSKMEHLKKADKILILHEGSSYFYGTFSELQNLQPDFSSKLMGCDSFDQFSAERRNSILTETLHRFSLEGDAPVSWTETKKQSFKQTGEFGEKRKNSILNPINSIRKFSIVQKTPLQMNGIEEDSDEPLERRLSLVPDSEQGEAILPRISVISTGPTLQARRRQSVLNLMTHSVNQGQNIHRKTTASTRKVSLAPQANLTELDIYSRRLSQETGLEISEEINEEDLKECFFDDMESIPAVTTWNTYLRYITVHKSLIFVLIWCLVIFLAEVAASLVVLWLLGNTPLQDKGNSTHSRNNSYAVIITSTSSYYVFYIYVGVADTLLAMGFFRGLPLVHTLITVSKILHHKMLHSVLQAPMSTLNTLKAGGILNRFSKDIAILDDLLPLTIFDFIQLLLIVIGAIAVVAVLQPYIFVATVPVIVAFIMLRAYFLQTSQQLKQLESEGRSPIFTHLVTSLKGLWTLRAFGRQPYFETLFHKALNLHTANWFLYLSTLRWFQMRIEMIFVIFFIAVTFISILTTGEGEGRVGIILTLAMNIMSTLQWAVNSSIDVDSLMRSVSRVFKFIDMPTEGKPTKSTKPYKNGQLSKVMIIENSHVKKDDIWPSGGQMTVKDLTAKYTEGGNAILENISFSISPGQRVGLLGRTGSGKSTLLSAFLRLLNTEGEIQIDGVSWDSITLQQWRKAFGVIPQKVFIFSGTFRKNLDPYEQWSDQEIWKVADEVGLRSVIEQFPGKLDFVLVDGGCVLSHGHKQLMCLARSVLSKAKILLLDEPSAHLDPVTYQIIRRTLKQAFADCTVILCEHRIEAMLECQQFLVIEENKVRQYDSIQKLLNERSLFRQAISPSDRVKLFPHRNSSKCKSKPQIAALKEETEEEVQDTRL

| EC30 [nM] | SMILES |
| --- | --- |
| < 3000 | CC1CN(c2ncccc2C(=O)NS(=O)(=O)c2cccc(Oc3ccccc3F)n2)C(C)(C)C1 (centres unmarked) [Compound 2015, N—[[6-(2-fluorophenoxy)-2-pyridyl]sulfonyl]-2-(2,2,4-trimethylpyrrolidin-1-yl)pyridine-3-carboxamide] |
| 3000 to 10000 | Cc1ccc(F)c(-c2ccc(C(=O)NS(=O)(=O)N3CC[C@H](N)C3)c(N3C[C@@H](C)CC3(C)C)n2)c1 [Compound 2016, N-[(3S)-3-aminopyrrolidin-1-yl]sulfonyl-6-(2-fluoro-5-methyl-phenyl)-2-[(4S)-2,2,4-trimethylpyrrolidin-1-yl]pyridine-3-carboxamide] |
| < 3000 | Cc1ccc(-c2ccc(C(=O)NS(=O)(=O)c3cccnc3N)c(N3C[C@@H](C)CC3(C)C)n2)cc1C [Compound 2017, N-[(2-amino-3-pyridyl)sulfonyl]-6-(3,4-dimethylphenyl)-2-[(4S)-2,2,4-trimethylpyrrolidin-1-yl]pyridine-3-carboxamide] |
| < 3000 | CCOc1cc(F)cc(-c2ccc(C(=O)NS(=O)(=O)c3cccnc3N)c(N3C[C@@H](C)CC3(C)C)n2)c1 [Compound 2018, N-[(2-amino-3-pyridyl)sulfonyl]-6-(3-ethoxy-5-fluoro-phenyl)-2-[(4S)-2,2,4-trimethylpyrrolidin-1-yl]pyridine-3-carboxamide] |
| < 3000 | CC1CN(c2ncccc2C(=O)NS(=O)(=O)c2cccc(OCC(C)C3CCCCC3)n2)C(C)(C)C1 (centres unmarked) [Compound 2019, N—[[6-(2-cyclohexylpropoxy)-2-pyridyl]sulfonyl]-2-(2,2,4-trimethylpyrrolidin-1-yl)pyridine-3-carboxamide] |
| < 3000 | CC(C)[C@@H](C)Oc1nc(N2C[C@@H](C)CC2(C)C)c(C(=O)NS(=O)(=O)c2cccc(N)n2)cc1F [Compound 2020, N-[(6-amino-2-pyridyl)sulfonyl]-6-[(1R)-1,2-dimethylpropoxy]-5-fluoro-2-[(4S)-2,2,4-trimethylpyrrolidin-1-yl]pyridine-3-carboxamide] |
| 3000 to 10000 | C[C@@H]1CN(c2nc(-c3cnc(N(C)C)nc3)ccc2C(=O)NS(=O)(=O)c2cccnc2N)C(C)(C)C1 [Compound 2021, N-[(2-amino-3-pyridyl)sulfonyl]-6-[2-(dimethylamino)pyrimidin-5-yl]-2-[(4S)-2,2,4-trimethylpyrrolidin-1-yl]pyridine-3-carboxamide] |
| < 3000 | CC1CN(c2ncccc2C(=O)NS(=O)(=O)c2cccc(Nc3ccc(-c4ccccc4)cc3)n2)C(C)(C)C1 (centres unmarked) [Compound 2023, N—[[6-(4-phenylanilino)-2-pyridyl]sulfonyl]-2-(2,2,4-trimethylpyrrolidin-1-yl)pyridine-3-carboxamide] |
| 3000 to 10000 | COC[C@@H]1CCCN1c1cccc(S(=O)(=O)NC(=O)c2cccnc2N2CC(C)CC2(C)C)n1 (stereo partly drawn) [Compound 2024, N—[[6-[(2S)-2-(methoxymethyl)pyrrolidin-1-yl]-2-pyridyl]sulfonyl]-2-(2,2,4-trimethylpyrrolidin-1-yl)pyridine-3-carboxamide] |
| < 3000 | CC1CN(c2ncccc2C(=O)NS(=O)(=O)c2cccc(NCC3CCCC3)n2)C(C)(C)C1 (centres unmarked) [Compound 2026, N—[[6-(cyclopentylmethylamino)-2-pyridyl]sulfonyl]-2-(2,2,4-trimethylpyrrolidin-1-yl)pyridine-3-carboxamide] |
| < 3000 | CC(C)OC(=O)N1CC=C(c2cc(C(=O)NS(=O)(=O)c3cccc(N)n3)c(N3C[C@@H](C)CC3(C)C)nc2C(C)(C)C)CC1 [Compound 2027, isopropyl 4-[5-[(6-amino-2-pyridyl)sulfonylcarbamoyl]-2-tert-butyl-6-[(4S)-2,2,4-trimethylpyrrolidin-1-yl]-3-pyridyl]-3,6-dihydro-2H-pyridine-1-carboxylate] |
| < 3000 | C[C@@H]1CN(c2nc(-c3ccc(Cl)cc3)ccc2C(=O)NS(=O)(=O)c2ccc[nH]c2=O)C(C)(C)C1 [Compound 2028, 6-(4-chlorophenyl)-N-[(2-oxo-1H-pyridin-3-yl)sulfonyl]-2-[(4S)-2,2,4-trimethylpyrrolidin-1-yl]pyridine-3-carboxamide] |
| < 3000 | C[C@@H]1CN(c2nc(-c3cccc(OC(F)(F)F)c3)ccc2C(=O)NS(=O)(=O)N2CC[C@H](N)C2)C(C)(C)C1 [Compound 2029, N-[(3S)-3-aminopyrrolidin-1-yl]sulfonyl-6-[3-(trifluoromethoxy)phenyl]-2-[(4S)-2,2,4-trimethylpyrrolidin-1-yl]pyridine-3-carboxamide] |

More lines, now with the values behind:

| SMILES | EC30 [nM] |
| --- | --- |
| Cc1ccc(-c2ccc(C(=O)NS(=O)(=O)c3ccc[nH]c3=O)c(N3C[C@@H](C)CC3(C)C)n2)c(F)c1 [Compound 2000, 6-(2-fluoro-4-methyl-phenyl)-N-[(2-oxo-1H-pyridin-3-yl)sulfonyl]-2-[(4S)-2,2,4-trimethylpyrrolidin-1-yl]pyridine-3-carboxamide] | < 3000 |
| CC1CN(c2ncccc2C(=O)NS(=O)(=O)c2cccc(OCC3CC=CCC3C)n2)C(C)(C)C1 (centres unmarked) [Compound 2001, N—[[6-[(6-methylcyclohex-3-en-1-yl)methoxy]-2-pyridyl]sulfonyl]-2-(2,2,4-trimethylpyrrolidin-1-yl)pyridine-3-carboxamide] | < 3000 |
| CCN(CC)c1cc(C)cc(-c2ccc(C(=O)NS(=O)(=O)c3cccc(N)n3)c(N3C[C@@H](C)CC3(C)C)n2)n1 [Compound 2002, N-[(6-amino-2-pyridyl)sulfonyl]-6-[6-(diethylamino)-4-methyl-2-pyridyl]-2-[(4S)-2,2,4-trimethylpyrrolidin-1-yl]pyridine-3-carboxamide] | < 3000 |
| CC1CN(c2ncccc2C(=O)NS(=O)(=O)c2cccc(Oc3ccc4[nH]ccc4c3)n2)C(C)(C)C1 (centres unmarked) [Compound 2003, N—[[6-(1H-indol-5-yloxy)-2-pyridyl]sulfonyl]-2-(2,2,4-trimethylpyrrolidin-1-yl)pyridine-3-carboxamide] | < 3000 |
| CC1CN(c2ncccc2C(=O)NS(=O)(=O)c2cccc(NCc3cccs3)n2)C(C)(C)C1 (centres unmarked) [Compound 2004, N—[[6-(2-thienylmethylamino)-2-pyridyl]sulfonyl]-2-(2,2,4-trimethylpyrrolidin-1-yl)pyridine-3-carboxamide] | < 3000 |
| CC1CN(c2ncccc2C(=O)NS(=O)(=O)c2cccc(N(C)CCc3cccnc3)n2)C(C)(C)C1 (centres unmarked) [Compound 2005, N—[[6-[methyl-[2-(3-pyridyl)ethyl]amino]-2-pyridyl]sulfonyl]-2-(2,2,4-trimethylpyrrolidin-1-yl)pyridine-3-carboxamide] | 3000 to 10000 |
| COc1c(F)cc(F)cc1-c1ccc(C(=O)NS(=O)(=O)c2cccnc2N)c(N2C[C@@H](C)CC2(C)C)n1 [Compound 2006, N-[(2-amino-3-pyridyl)sulfonyl]-6-(3,5-difluoro-2-methoxy-phenyl)-2-[(4S)-2,2,4-trimethylpyrrolidin-1-yl]pyridine-3-carboxamide] | < 3000 |
| C[C@@H]1CN(c2nc(-c3cccc4ccccc34)ccc2C(=O)NS(=O)(=O)c2ccc[nH]c2=O)C(C)(C)C1 [Compound 2007, 6-(1-naphthyl)-N-[(2-oxo-1H-pyridin-3-yl)sulfonyl]-2-[(4S)-2,2,4-trimethylpyrrolidin-1-yl]pyridine-3-carboxamide] | < 3000 |
| COc1ncc(-c2ccc(C(=O)NS(=O)(=O)c3cccnc3N)c(N3C[C@@H](C)CC3(C)C)n2)c(OC)n1 [Compound 2008, N-[(2-amino-3-pyridyl)sulfonyl]-6-(2,4-dimethoxypyrimidin-5-yl)-2-[(4S)-2,2,4-trimethylpyrrolidin-1-yl]pyridine-3-carboxamide] | 3000 to 10000 |
| CC(C)COc1cc(F)cc(-c2nc(N3C[C@@H](C)CC3(C)C)c(C(=O)NS(=O)(=O)c3cccc(N)n3)cc2I)c1 [Compound 2009, N-[(6-amino-2-pyridyl)sulfonyl]-6-(3-fluoro-5-isobutoxy-phenyl)-5-iodo-2-[(4S)-2,2,4-trimethylpyrrolidin-1-yl]pyridine-3-carboxamide] | < 3000 |
| Cc1cc(-c2ccc(C(=O)NS(=O)(=O)c3cccc(N)n3)c(N3C[C@@H](C)CC3(C)C)n2)cc(OCC(C)C)n1 [Compound 2010, N-[(6-amino-2-pyridyl)sulfonyl]-6-(2-isobutoxy-6-methyl-4-pyridyl)-2-[(4S)-2,2,4-trimethylpyrrolidin-1-yl]pyridine-3-carboxamide] | < 3000 |
| CC1CN(c2ncccc2C(=O)NS(=O)(=O)c2cccc(N3CCC4CCCCC4C3)n2)C(C)(C)C1 (centres unmarked) [Compound 2011, N—[[6-(3,4,4a,5,6,7,8,8a-octahydro-1H-isoquinolin-2-yl)-2-pyridyl]sulfonyl]-2-(2,2,4-trimethylpyrrolidin-1-yl)pyridine-3-carboxamide] | < 3000 |
| CC1CN(c2ncccc2C(=O)NS(=O)(=O)c2cccc(OCc3cccc(N(C)C)c3)n2)C(C)(C)C1 (centres unmarked) [Compound 2012, N—[[6-[[3-(dimethylamino)phenyl]methoxy]-2-pyridyl]sulfonyl]-2-(2,2,4-trimethylpyrrolidin-1-yl)pyridine-3-carboxamide] | < 3000 |
| CC1CN(c2ncccc2C(=O)NS(=O)(=O)c2cccc(Oc3ccc4c(c3)OCO4)n2)C(C)(C)C1 (centres unmarked) [Compound 2013, N—[[6-(1,3-benzodioxol-5-yloxy)-2-pyridyl]sulfonyl]-2-(2,2,4-trimethylpyrrolidin-1-yl)pyridine-3-carboxamide] | < 3000 |
| CC1CN(c2ncc(/C=C/c3ccc(C(F)(F)F)cc3)cc2C(=O)NS(=O)(=O)c2cccc(N)n2)C(C)(C)C1 (centres unmarked) [Compound 2014, N-[(6-amino-2-pyridyl)sulfonyl]-5-[(E)-2-[4-(trifluoromethyl)phenyl]vinyl]-2-(2,2,4-trimethylpyrrolidin-1-yl)pyridine-3-carboxamide] | < 3000 |
| CC1CN(c2ncccc2C(=O)NS(=O)(=O)c2cccc(OCCC(C)(C)C)n2)C(C)(C)C1 (centres unmarked) [Compound 2025, N—[[6-(3,3-dimethylbutoxy)-2-pyridyl]sulfonyl]-2-(2,2,4-trimethylpyrrolidin-1-yl)pyridine-3-carboxamide] | < 3000 |
